According to ChEMBL document CHEMBL1143396, “Additivity in the analysis and design of HIV protease inhibitors” (J Med Chem, 2009):

Target: Human immunodeficiency virus type 1 protease (Human immunodeficiency virus 1, UniProt Q72874, Q7K)
Test: Inhibition of HIV1 protease Q7K mutant by FRET method

SMILES | Ki (read-out: Ki) [nM] | Ki (read-out: pKi (converted)) [nM]
C[C@H](O)CN(C[C@@H](O)[C@H](Cc1ccccc1)NC(=O)C[C@H]1C=CCC1)S(=O)(=O)c1ccco1 | 259 | 257
COc1cccc(S(=O)(=O)N(Cc2cccs2)C[C@@H](O)[C@H](Cc2ccccc2)NC(=O)[C@H]2CCCC[C@@H]2C)c1 | 582 | 589
COc1cccc(S(=O)(=O)N(Cc2cccs2)C[C@@H](O)[C@H](Cc2ccccc2)Nc2cc(F)c(F)c(O)c2F)c1 | 515 | 513
COc1cccc(S(=O)(=O)N(C[C@H](C)O)C[C@@H](O)[C@H](Cc2ccccc2)NC(=O)c2cccc(C)n2)c1 | 4760 | 4790
COc1ccc(S(=O)(=O)N(CC(C)C)C[C@@H](O)[C@H](Cc2ccccc2)NC(=O)[C@@H](O)C(C)C)cc1 | 1.88 | 1.86
CC(C)CN(C[C@@H](O)[C@H](Cc1ccccc1)NC(=O)C1(C(N)=O)CC1)S(=O)(=O)c1ccc2ncsc2c1 | 0.115 | 0.115
CC[C@H](C)CN(C[C@@H](O)[C@H](Cc1ccccc1)NC(=O)[C@@H]1CN(c2cccc(C(C)=O)c2)C(=O)O1)S(=O)(=O)c1ccc2ncsc2c1 | 0.019 | 0.0191
CC[C@@H](C)CN(C[C@@H](O)[C@H](Cc1ccccc1)NC(=O)[C@@H](NC(C)=O)C(C)C)S(=O)(=O)c1ccc(OC)cc1 | 0.033 | 0.0331
O=C(N[C@@H](Cc1ccccc1)[C@H](O)CN(Cc1cccs1)S(=O)(=O)c1cc(F)c(F)cc1F)c1ccnnc1 | 1060 | 1070
CCCCCN(C[C@@H](O)[C@H](Cc1ccccc1)NC(=O)C1(C(N)=O)CC1)S(=O)(=O)c1ccc(OC)cc1 | 0.79 | 0.794
CCCCCN(C[C@@H](O)[C@H](Cc1ccccc1)NC(=O)[C@@H](O)C(C)C)S(=O)(=O)c1ccc2ncsc2c1 | 0.82 | 0.813
O=C(Cc1cccs1)N[C@@H](Cc1ccccc1)[C@H](O)CN(Cc1cccs1)S(=O)(=O)c1cc(F)c(F)cc1F | 2360 | 2340
COc1ccc(S(=O)(=O)N(CC(C)C)C[C@@H](O)[C@H](Cc2ccccc2)NC(=O)c2cccc(O)c2)cc1 | 0.14 | 0.141
COc1cccc(S(=O)(=O)N(CC2CC2)C[C@@H](O)[C@H](Cc2ccccc2)NC(=O)c2cccc(C)n2)c1 | 14600 | 14500
CC[C@H](O)CC(=O)N[C@@H](Cc1ccccc1)[C@H](O)CN(CC(C)C)S(=O)(=O)c1ccc(OC)cc1 | 0.37 | 0.372
CCCCCN(C[C@@H](O)[C@H](Cc1ccccc1)NC(=O)C[C@@H](O)CC)S(=O)(=O)c1ccc2ncsc2c1 | 0.7 | 0.708
COc1cccc(S(=O)(=O)N(C[C@H]2CCCO2)C[C@@H](O)[C@H](Cc2ccccc2)NC(=O)[C@@H]2CN(c3cccc(F)c3)C(=O)O2)c1 | 150 | 151
Cc1cccc(OS(=O)(=O)N(C[C@@H](O)[C@H](Cc2ccccc2)NC(=O)C[C@H]2C=CCC2)C[C@@H](C)O)c1 | > 10000 | –
CNC(=O)CCC(=O)N[C@@H](Cc1ccccc1)[C@H](O)CN(C[C@H](C)O)S(=O)(=O)c1cccc(OC)c1 | 764 | 759
CC[C@@H](C)CN(C[C@@H](O)[C@H](Cc1ccccc1)NC(=O)[C@@H](O)C(C)C)S(=O)(=O)c1ccc(OC)cc1 | 0.617 | 0.617
COc1ccc(S(=O)(=O)N(CC(C)C)C[C@@H](O)[C@H](Cc2ccccc2)NC(=O)/C=C/C(C)=O)cc1 | 0.17 | 0.17

SMILES | Ki (read-out: Ki) [nM] | Ki (read-out: pKi (converted)) [nM]
Cc1cccc(OS(=O)(=O)N(C[C@H](C)O)C[C@@H](O)[C@H](Cc2ccccc2)NC(=O)C[C@H]2C=CCC2)c1 | 13600 | 13500
CC[C@@H](C)CN(C[C@@H](O)[C@H](Cc1ccccc1)NC(=O)C[C@@H](O)CC)S(=O)(=O)c1ccc(OC)cc1 | 0.34 | 0.339
CC(=O)N[C@H](C(=O)N[C@@H](Cc1ccccc1)[C@H](O)CN(CC(C)C)S(=O)(=O)c1ccc2ncsc2c1)C(C)C | 0.099 | 0.1
CCCCCN(C[C@@H](O)[C@H](Cc1ccccc1)NC(=O)c1cccc(O)c1)S(=O)(=O)c1ccc(OC)cc1 | 1.45 | 1.45
CCC(=O)CCC(=O)N[C@@H](Cc1ccccc1)[C@H](O)CN(CC(C)C)S(=O)(=O)c1ccc2ncsc2c1 | 0.12 | 0.12
CC[C@H](O)CC(=O)N[C@@H](Cc1ccccc1)[C@H](O)CN(CC(C)C)S(=O)(=O)c1ccc2ncsc2c1 | 0.134 | 0.135
COc1cccc(S(=O)(=O)N(C[C@@H](O)[C@H](Cc2ccccc2)NC(=O)c2cccc(C)n2)C[C@@H](C)O)c1 | 12200 | 12300
CCC(=O)CCC(=O)N[C@@H](Cc1ccccc1)[C@H](O)CN(C[C@H](C)CC)S(=O)(=O)c1ccc2ncsc2c1 | 0.063 | 0.0631
CC(=O)/C=C/C(=O)N[C@@H](Cc1ccccc1)[C@H](O)CN(Cc1cccs1)S(=O)(=O)c1cc(F)c(F)cc1F | 610 | 617
Cc1cccc(C(=O)N[C@@H](Cc2ccccc2)[C@H](O)CN(C[C@H](C)O)S(=O)(=O)c2ccco2)n1 | > 10000 | –
CCCCCN(C[C@@H](O)[C@H](Cc1ccccc1)NC(=O)[C@@H](O)C(C)C)S(=O)(=O)c1ccc(OC)cc1 | 2.48 | 2.45
CC[C@H](C)CN(C[C@@H](O)[C@H](Cc1ccccc1)NC(=O)c1ccc(O)c(O)c1)S(=O)(=O)c1ccc(OC)cc1 | 0.38 | 0.38
COc1ccc(S(=O)(=O)N(CC(C)C)C[C@@H](O)[C@H](Cc2ccccc2)NC(=O)[C@@H](NC(C)=O)C(C)C)cc1 | 0.084 | 0.0832
CCC(=O)CCC(=O)N[C@@H](Cc1ccccc1)[C@H](O)CN(CC(C)C)S(=O)(=O)c1ccc(OC)cc1 | 0.24 | 0.24
CC(=O)/C=C/C(=O)N[C@@H](Cc1ccccc1)[C@H](O)CN(Cc1cccs1)S(=O)(=O)c1cnoc1C | 26300 | 26300
CNC(=O)CCC(=O)N[C@@H](Cc1ccccc1)[C@H](O)CN(C[C@H](C)O)S(=O)(=O)c1ccco1 | 543 | 537
COc1ccc(S(=O)(=O)N(CC(C)C)C[C@@H](O)[C@H](Cc2ccccc2)NC(=O)/C=C(\C)C(F)(F)F)cc1 | 0.39 | 0.389
CCCCCN(C[C@@H](O)[C@H](Cc1ccccc1)NC(=O)C[C@@H](O)CC)S(=O)(=O)c1ccc(OC)cc1 | 0.86 | 0.851
Cc1cccc(C(=O)N[C@@H](Cc2ccccc2)[C@H](O)CN(CC2CC2)S(=O)(=O)c2ccco2)n1 | > 10000 | –
COc1ccc(S(=O)(=O)N(CC(C)C)C[C@@H](O)[C@H](Cc2ccccc2)NC(=O)C2(C(N)=O)CC2)cc1 | 0.173 | 0.174
CC[C@@H](C)CN(C[C@@H](O)[C@H](Cc1ccccc1)NC(=O)c1cccc(O)c1)S(=O)(=O)c1ccc(OC)cc1 | 0.117 | 0.117

SMILES | Ki (read-out: Ki) [nM] | Ki (read-out: pKi (converted)) [nM]
CC[C@@H](C)CN(C[C@@H](O)[C@H](Cc1ccccc1)NC(=O)[C@@H](NC(C)=O)C(C)C)S(=O)(=O)c1ccc2ncsc2c1 | 0.057 | 0.0575
Cc1cccc(OS(=O)(=O)N(CC2CC2)C[C@@H](O)[C@H](Cc2ccccc2)NC(=O)C[C@H]2C=CCC2)c1 | 2020 | 2040
CNC(=O)CCC(=O)N[C@@H](Cc1ccccc1)[C@H](O)CN(C[C@@H](C)O)S(=O)(=O)c1cccc(OC)c1 | 1170 | 1170
Cc1oncc1S(=O)(=O)N(Cc1cccs1)C[C@@H](O)[C@H](Cc1ccccc1)NC(=O)/C=C/C(C)C(F)(F)F (some centres undefined) | 13200 | 13200
CCCCCN(C[C@@H](O)[C@H](Cc1ccccc1)NC(=O)[C@@H](NC(C)=O)C(C)C)S(=O)(=O)c1ccc(OC)cc1 | 0.038 | 0.038
CCCCCN(C[C@@H](O)[C@H](Cc1ccccc1)NC(=O)CCC(=O)CC)S(=O)(=O)c1ccc(OC)cc1 | 4.17 | 4.17
CC(C)CN(C[C@@H](O)[C@H](Cc1ccccc1)NC(=O)[C@@H](O)C(C)C)S(=O)(=O)c1ccc2ncsc2c1 | 0.29 | 0.288
COc1cccc(S(=O)(=O)N(C[C@H]2CCCO2)C[C@@H](O)[C@H](Cc2ccccc2)NC(=O)[C@@H]2CN(c3ccccc3)C(=O)O2)c1 | 42 | 41.7
CC[C@H](C)CN(C[C@@H](O)[C@H](Cc1ccccc1)NC(=O)c1cccc(F)c1C)S(=O)(=O)c1ccc2ncsc2c1 | 0.033 | 0.0331
COc1ccc(S(=O)(=O)N(CC(C)C)C[C@@H](O)[C@H](Cc2ccccc2)NC(=O)[C@H](C)NC(C)=O)cc1 | 0.117 | 0.117
COc1ccc(S(=O)(=O)N(CC(C)C)C[C@@H](O)[C@H](Cc2ccccc2)Nc2cccc(F)c2C)cc1 | 0.093 | 0.0933
CC[C@H](C)CN(C[C@@H](O)[C@H](Cc1ccccc1)NC(=O)[C@@H]1CN(c2cccc(C(C)=O)c2)C(=O)O1)S(=O)(=O)c1ccc(OC)cc1 | 0.232 | 0.234
CC[C@H](C)CN(C[C@@H](O)[C@H](Cc1ccccc1)NC(=O)[C@H](C)NC(C)=O)S(=O)(=O)c1ccc(OC)cc1 | 0.046 | 0.0457
CC[C@@H](C)CN(C[C@@H](O)[C@H](Cc1ccccc1)NC(=O)C1(C(N)=O)CC1)S(=O)(=O)c1ccc(OC)cc1 | 0.21 | –
CCCCCN(C[C@@H](O)[C@H](Cc1ccccc1)NC(=O)c1cccc(O)c1)S(=O)(=O)c1ccc2ncsc2c1 | 0.309 | 0.309
C/C(=C\C(=O)N(C)[C@@H](Cc1ccccc1)[C@H](O)CN(Cc1cccs1)S(=O)(=O)c1cc(F)c(F)cc1F)C(F)(F)F | 52.6 | 52.5
CCCCCN(C[C@@H](O)[C@H](Cc1ccccc1)NC(=O)C1(C(N)=O)CC1)S(=O)(=O)c1ccc2ncsc2c1 | 0.21 | 0.209
CC[C@@H](C)CN(C[C@@H](O)[C@H](Cc1ccccc1)NC(=O)C[C@@H](O)CC)S(=O)(=O)c1ccc2ncsc2c1 | 0.067 | 0.0676
O=C(C[C@H]1C=CCC1)N[C@@H](Cc1ccccc1)[C@H](O)CN(CC1CC1)S(=O)(=O)c1ccco1 | > 10000 | –
COc1cccc(S(=O)(=O)N(Cc2cccs2)C[C@@H](O)[C@H](Cc2ccccc2)NC(=O)c2cc(O)c(O)c(O)c2)c1 | 1150 | 1150
